Data set [1] has as its system T2 cells. The data set is classed as cell-based, human. On the procedure: (§1) Target cells were labeled with 50 μCi of ^111Indium-labeled oxyquinoline (Amersham Health, Silver Spring, Md.) for 15 minutes at room temperature. Target cells in medium containing 10% human AB serum were plated at 3×10^3 cells per well, in 96-well rounded-bottom culture plates. Labeled C1R-A2 or T2 cells were incubated with peptides at the indicated concentrations for 60 minutes at 37° C. in 5% CO2 before the addition of effector cells. No peptide was added when carcinoma cells or CD19+ B cells were used as targets. CD8+ T cells negatively isolated from T-cell cultures were used as effector cells, at various effector-to-target (E:T) cell ratios. […] Supernatants were harvested and the ^111In released was measured by gamma counting. Spontaneous release was determined by incubating the target cells with medium alone, and complete lysis by incubating the target cells with 2.5% Triton X-100. All determinations were performed in triplicate, and standard deviations were calculated. Specific lysis was calculated as follows: specific lysis (%)=[(observed release-spontaneous release)/(complete release-spontaneous release)]×100. […] Cytotoxic lysis of normal B lymphocytes was also analyzed since low expression of Brachyury was detectable in CD19+ cells isolated from various healthy donors.

Data set [2] has as its system normal donor CD19+ B cells. It counts as cell-based, human. On the procedure:
as §1

Data set [3] addresses T1, HLA-A0201 molecules (Homo sapiens, UniProt P04439, D140Y/D185E/D98H/E176V/E277Q/G131W/G231S/I119V/I121R/I166T/I218V/L300P/L318F/N151K/N90K/P208A/P217A/Q86G/Q94H/R138H/R169H/T345S).
T1 construct: the T2 (HLA-A2+) transport-deletion mutant cell line; endogenous in cells; host or cells: T2 (HLA-A2+) TAP-deficient cells
Nature of the data set: HLA-A2 binding assay: HLA-A02 surface expression on T2 cells by flow cytometry. The note with it: 25 μM peptide, compared to positive and negative control peptides. The procedure:
Binding of Brachyury-specific peptides T-p1, T-p2, T-p3, and T-p4 (SEQ ID NOs: 1-4) to HLA-A0201 molecules was evaluated by flow cytometry analysis of HLA-A02 surface expression on T2 cells. T2 cells (1×10^6) in serum-free Iscove's modified Dulbecco's medium were incubated in the presence of various concentrations of each peptide, in 24-well culture plates at 37° C. with 5% CO2. After 18 hours in culture, T2 cells were harvested, washed with 1× phosphate buffered saline (PBS) (Invitrogen) and stained with 20 μl of a FITC-conjugated anti-HLA-A02-specific monoclonal antibody (MAb) (One Lambda, Inc., Canoga Park, Calif.). A FITC-conjugated IgG2a MAb (BD Biosciences, San Jose, Calif.) was used as an isotype control. […] Results were expressed as mean fluorescence intensity (MFI) collected on a log scale. […] Assuming first order kinetics, the log2 of MFI/MFI0 (MFI is the fluorescence at each time point and MFI0 the initial fluorescence at time 0) was plotted against time (minutes). The decay rate constant was calculated as the slope of the linear regression for each curve and the half-life of each peptide-MHC complex was calculated as […].
In silico-predicted epitopes were then assessed for binding to the MHC molecules in a cell-based assay. […]
For orientation: In flow cytometry, cells or beads pass a laser one at a time.

Data set [4] concerns CD8+ T cells. Nature of the data set: IFN-γ ELISA of peptide-induced CD8+ T cells stimulated with peptide-pulsed autologous DCs. It counts as cell-based, human. Conditions: healthy donor, DCs pulsed with 25 μM peptide, three IVS, 24 hours stimulation. An excerpt:
To generate Brachyury-specific cytotoxic T cells (CTLs), peptide-pulsed irradiated (30 Gy) DCs were used as antigen presenting cells (APCs) with autologous, non-adherent cells used as effector cells at an effector-to-APC ratio of 10:1. Cultures were maintained for three initial days in medium containing 10% human AB serum, and four additional days in the same medium supplemented with 20 U/ml of recombinant human IL-2. After a seven-day culture period, designated as an in vitro stimulation (IVS) cycle, cells were re-stimulated as described above.
After three IVS cycles, CD8+ T cells that were negatively isolated by using a CD8+ isolation kit (Miltenyi Biotec, Auburn, Calif.) were stimulated for 24 hours in the presence of peptide-pulsed autologous DCs. Culture supernatants were analyzed for the presence of IFN-γ by using an enzyme linked immunosorbant assay (ELISA) kit (Biosource International Inc., Camarillo, Calif.). Results were expressed in pg/ml.
Irradiated DCs pulsed with 25 μM of each peptide were used to stimulate autologous T cells from a healthy donor's PBMCs. […] Cytotoxic lysis of normal B lymphocytes was also analyzed since low expression of Brachyury was detectable in CD19+ cells isolated from various healthy donors.

Peptide text beside a SMILES is read from it.

Regarding `CC(C)C[C@H](NC(=O)[C@@H](NC(=O)[C@H](CO)NC(=O)[C@@H](NC(=O)CNC(=O)[C@@H]1CCCN1C(=O)[C@H](CC(C)C)NC(=O)[C@H](CC(C)C)NC(=O)[C@@H](N)Cc1c[nH]c2ccccc12)[C@@H](C)O)[C@@H](C)O)C(=O)O` [T-p2, WLLPGTSTL] (H-WLLPGTSTL-OH; N-terminus and C-terminus assumed), the “Lowest peptide concentration showing cytotoxic responses of T-p2 CTLs” value in data set [1] is on record as 1 nM. The “Cytotoxic lysis of normal B lymphocytes” value in data set [2] is given as “No lysis was observed”.
Regarding “AMYSFLLDFV (listed as Homo sapiens) [T-p4]”, the “Binding to HLA-A02 molecules (cell surface MHC stabilization, MFI)” value in data set [3] is on record as “highest binding to T2 cells”.
On to “RLIASWTPV (listed as Homo sapiens) [T-p3]”, for which the “Binding to HLA-A02 molecules (cell surface MHC stabilization, MFI)” value in data set [3] was “highest binding to T2 cells”. Moreover, the “Induction of antigen-specific CTLs releasing IFN-γ upon stimulation with the specific peptide” value in data set [4] is listed as “induced antigen-specific CTLs able to release IFN-γ”.
